The text below walks through data of patent US8163661B2, “Luminescence measurement system” (Olympus Corporation, priority 2007, dated 2012).

Assay [1] relates to HeLa cell (pGL3 transfected). Conditions: pGL3 transfected to HeLa cell, measured with time.
Procedure: Specifically, in the experiments conducted by the present inventor, pGL3 was transfected to HeLa cell and, by making use of FCCP acting as an uncoupler, the production of ATP in mitochondria was suspended and then the luminescence intensity on this occasion was measured with time by making use of LUMINOVIEW (LV100) (trade name).
Assay [2] concerns cytoplasmic ATP. The settings on record: 30 minutes after treatment with FCCP; cited from earlier work.

For `N#CC(C#N)=NNc1ccc(OC(F)(F)F)cc1` [FCCP, carbonyl cyanide p-(trifluoromethoxy) phenylhydrazone], the “luminescence intensity after FCCP” value in assay [1] was “not attenuated”. For the same molecule, the “concentration of cytoplasmic ATP relative to steady state” value in assay [2] is recorded as “about 50 % of that of steady state”.
